Laboratory results as given in the supplement of paper PMC9103864.

Tests used:
[1] = test system: BMSC (primary human bone marrow mesenchymal stromal cells); assay: absolute EC50 for viability; higher = less sensitive
[2] = test system: BMSC (primary human bone marrow mesenchymal stromal cells); assay: drug sensitivity score (DSS); higher = more sensitive

Structure (SMILES)	absolute EC50 for viability [1] [µM]	drug sensitivity score [2]
CN(C)CC#Cc1ccc(OCCCc2sc(N3CCc4cccc(C(=O)Nc5nc6ccccc6s5)c4C3)nc2C(=O)O)c(F)c1	> 10	0
c1cc(CN2CCCNCCNCCCNCC2)ccc1CN1CCCNCCNCCCNCC1 [Plerixafor]	> 10	0
CNC(=O)c1ccc(N2C(=S)N(c3ccc(C#N)c(C(F)(F)F)c3)C(=O)C2(C)C)cc1F [Enzalutamide]	> 10	0
CCN(CC)CCCC(C)Nc1ccnc2cc(Cl)ccc12 (centres undefined) [Chloroquine]	12.8	10.3
CNc1ncc2cc(-c3cc(NC(=O)NCCC(C)(C)C)c(F)cc3C)c(C)nc2n1	> 10	6.2
C=CCN(/C=C1/C(=O)O[C@H](COC)[C@@]2(C)C1=C(O)C(=O)C1=C2[C@H](OC(C)=O)C[C@]2(C)C(=O)CC[C@@H]12)CC=C [Sonolisib]	> 10	0
CNC(=O)c1ccccc1Nc1nc(Nc2ccc3c(c2OC)CCC[C@H](N2CCN(CCO)CC2)C3)ncc1Cl	1.17	6.6
CCCCOc1nc(N)c2c(n1)N(Cc1cccc(CN3CCCC3)c1)CC(=O)N2 [Vesatolimod]	> 10	0
CN1CCN(C(=O)c2ccc3cc(CCNc4ncnc5ccc(C#N)cc45)ccc3c2)CC1 [Senexin B]	> 1	0.3
CN1CCN(c2cc(C(=O)Nc3ccc4c(c3)-c3c(c(C(N)=O)nn3-c3ccc(F)cc3)CC4)c(Cl)cn2)CC1 [PHA 408]	> 10	1.3
CCN(CC)CCNC(=O)c1c(C)[nH]c(/C=C2\C(=O)Nc3ccc(F)cc32)c1C [Sunitinib]	> 1	5.6
CCNC(=O)c1noc(-c2cc(C(C)C)c(O)cc2O)c1-c1ccc(CN2CCOCC2)cc1 [Luminespib]	0.0152	16.8
COC(=O)c1ccc2c(c1)[nH]c1ncnc(NCCCN3CCCCC3)c12 [UM729]	> 10	3.3
O=C(O)CNC(=O)c1c(O)c2ccccc2n(Cc2ccccc2)c1=O [IOX-2]	> 50	1.9
Nc1nc(NC2CC2)cc(-c2cccc(Cl)c2Cl)n1 [TH588]	> 25	0
CN(CC(=O)N(Cc1ccc(C2CCCCC2)cc1)c1ccc(C(=O)O)cc1)S(=O)(=O)c1c(F)c(F)c(F)c(F)c1F [SH-4-54]	> 25	4
COc1cc(Nc2ncc(F)c(Nc3ccc4c(n3)NC(=O)C(C)(C)O4)n2)cc(OC)c1OC [Tamatinib]	> 10	4.2
CC(C)c1c(C(=O)Nc2ccccc2)c(-c2ccccc2)c(-c2ccc(F)cc2)n1CC[C@@H](O)C[C@@H](O)CC(=O)O [Atorvastatin]	8.18	3.1
CCOCc1nc2c(N)nc3ccccc3c2n1CC(C)(C)O [Resiquimod]	> 10	0

Structure (SMILES)	absolute EC50 for viability [1] [µM]	drug sensitivity score [2]
CC(=O)O[C@H]1C(=O)[C@@]2(C)[C@H]([C@H](OC(=O)c3ccccc3)[C@]3(O)C[C@H](OC(=O)[C@H](O)[C@@H](NC(=O)c4ccccc4)c4ccccc4)C(C)=C1C3(C)C)[C@]1(OC(C)=O)CO[C@@H]1C[C@@H]2O [Paclitaxel]	> 1	2.7
COCCNCc1ccc(-c2cc3nccc(Oc4ccc(NC(=O)C5(C(=O)Nc6ccc(F)cc6)CC5)cc4F)c3s2)nc1 [Sitravatinib]	> 2.5	7.7
CC(C)c1cc(C(=O)N2Cc3ccc(CN4CCN(C)CC4)cc3C2)c(O)cc1O [Onalespib]	0.0904	12.5
COc1ccc(-c2ccc3ncc4c(c3c2)n(-c2ccc(N3CCNCC3)c(C(F)(F)F)c2)c(=O)n4C)cn1 [NVP-BGT226]	0.0263	17.5
O=c1[nH]cc(F)c(=O)[nH]1 [Fluorouracil]	> 10	0.9
CC[C@H](NC(=O)[C@H](C)NC)C(=O)N1C[C@@H](O)C[C@H]1Cc1c(-c2[nH]c3cc(F)ccc3c2C[C@@H]2C[C@H](O)CN2C(=O)[C@H](CC)NC(=O)[C@H](C)NC)[nH]c2cc(F)ccc12 [Birinapant]	> 1	0
COC(=O)c1ccc([C@H]2c3[nH]c4ccccc4c3C[C@H](C(=O)OC)N2C(=O)CCl)cc1 [RSL3]	> 10	0
O=C(Nc1cc(Oc2cc(F)c(NC(=O)C3(C(=O)Nc4ccc(F)cc4)CC3)cc2F)ccn1)C1CC1 [Altiratinib]	> 10	2.9
O=C1CCC(N2C(=O)c3ccccc3C2=O)C(=O)N1 (centres undefined) [Thalidomide]	> 10	0
Cc1ccc(F)c(NC(=O)Nc2ccc(-c3cccc4[nH]nc(N)c34)cc2)c1 [Linifanib]	> 1	0
CCNC(=O)CCC/C=C\C[C@@H]1[C@@H](/C=C/[C@@H](O)CCc2ccccc2)[C@H](O)C[C@@H]1O [Bimatoprost]	> 5.5	-0.9
CC(C)N(CCCNC(=O)Nc1ccc(C(C)(C)C)cc1)C[C@H]1O[C@@H](n2cc(Br)c3c(N)ncnc32)[C@H](O)[C@@H]1O [SGC0946]	> 10	2.1
C[C@@]1(C(=O)Nc2ccc(F)nc2)CCCN1c1nc(Nc2cc(C3CC3)n[nH]2)c2cccn2n1	7.74	9.3
O=C(Nc1cnn2ccc(N3CCC[C@@H]3c3cc(F)ccc3F)nc12)N1CC[C@H](O)C1 [Larotrectinib]	> 1	0
Cc1ccc(C(=O)Nc2ccc(CN3CCN(C)CC3)c(C(F)(F)F)c2)cc1C#Cc1cnc2cccnn12 [Ponatinib]	> 1	4.6
CC[C@@](C)(Nc1ccnc(-c2c[nH]c3ncccc23)n1)C(=O)NCC(F)(F)F [Decernotinib]	> 10	0.4
COc1cc(Nc2ncc3c(n2)-c2ccc(Cl)cc2C(c2c(F)cccc2OC)=NC3)ccc1C(=O)O [Alisertib]	> 10	0
Cc1cccc(-c2[nH]c(CNc3ccccc3F)nc2-c2ccc3ncnn3c2)n1 [TEW-7197]	> 2.5	2.1
CC(C)Nc1cc(-c2c[nH]c(C(=O)N[C@H](CO)c3cccc(Cl)c3)c2)c(Cl)cn1 [Ulixertinib]	> 10	2.4

Structure (SMILES)	absolute EC50 for viability [1] [µM]	drug sensitivity score [2]
CCCN(CCC)C(=O)C1=Cc2ccc(-c3ccc(C(=O)N4CCCC4)cc3)cc2N=C(N)C1 [Motolimod]	9.93	0
N#Cc1ccc2[nH]c(O)c(-c3ccc(CN4CCOCC4)cn3)c2c1 [AZD-1080]	> 10	0
NC(=O)/C(=C/n1cnc(-c2cc(C(F)(F)F)cc(C(F)(F)F)c2)n1)c1cncnc1 [Eltanexor]	> 10	9.6
Cn1cc(CNCC2CCN(c3ncc(C(=O)NO)cn3)CC2)c2ccccc21 [Quisinostat]	0.181	8.3
Cc1nc2cccc(N)c2c(=O)n1C1CCC(=O)NC1=O (centres undefined) [CC122]	9.93	0
Nc1ncnc2c1c(-c1cccc(OCc3ccccc3)c1)cn2C1CC(CN2CCC2)C1 (centres undefined) [NVP-AEW541]	6.04	4.5
C=CC(=O)Nc1cc2c(Nc3ccc(F)c(Cl)c3)ncnc2cc1OCCCN1CCOCC1 [Canertinib]	> 10	3.7
O=C(NC[C@H](O)CN1CCc2ccccc2C1)c1cc(NC2COC2)ncn1	> 10	0
CC(=O)OC[C@H]1O[C@@H]([S-])[C@H](OC(C)=O)[C@@H](OC(C)=O)[C@@H]1OC(C)=O.CCP(CC)CC.[Au+] [Auranofin]	1.39	3.3
CCN(CC)CCN(Cc1ccc(-c2ccc(C(F)(F)F)cc2)cc1)C(=O)Cn1c(SCc2ccc(F)cc2)nc(=O)c2c1CCC2 [Darapladib]	> 1	0
CCC/C=C/C=C/C(=O)O[C@H]1/C(=C/C(=O)OC)C[C@H]2C[C@H]([C@@H](C)O)OC(=O)C[C@H](O)C[C@@H]3C[C@H](OC(C)=O)C(C)(C)[C@](O)(C[C@@H]4C/C(=C/C(=O)OC)C[C@H](/C=C/C(C)(C)[C@]1(O)O2)O4)O3 [Bryostatin 1]	> 0.1	0
C1=N/C2=N/c3ccc(OCCN4CCCC4)c(c3)COC/C=C/COCc3cccc(c3)C(=C1)N2 [Pacritinib]	3.67	4.7
Cc1cccc(-c2nn3c(c2-c2ccnc4ccc(C(N)=O)cc24)CCC3)n1 [Galunisertib]	> 1	0
CN1CCC(CNc2ccc3ncc(-c4cccc(OC(F)(F)F)c4)n3n2)CC1 [SGI-1776]	1.4	9.6
O=C(Nc1cccc(NC(=O)c2cccc(O)c2O)c1)c1cccc(O)c1O [MST-312]	1.22	9.7
COc1cc([C@@H]2c3cc4c(cc3[C@@H](O[C@@H]3O[C@@H]5CO[C@@H](C)O[C@H]5[C@H](O)[C@H]3O)[C@H]3COC(=O)[C@H]23)OCO4)cc(OC)c1O [Etoposide]	> 10	0
CN(C)C(=O)c1cc2cnc(Nc3ccc(N4CCNCC4)cn3)nc2n1C1CCCC1 [Ribociclib]	> 10	2.2
CCN(c1cc(-c2ccc(CN3CCOCC3)cc2)cc(C(=O)NCc2c(C)cc(C)[nH]c2=O)c1C)C1CCOCC1 [Tazemetostat]	> 10	0
CN1CCC(COc2cnc(-c3cccc(Cn4nc(-c5cccc(C#N)c5)ccc4=O)c3)nc2)CC1 [Tepotinib]	> 1	0.3
